PubChem BioAssay (NCI)
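Five concentrations, 48 hours, 96-well plates. At the GI50, growth is halved. The concentration for full growth arrest is given as TGI.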

Assays:
Test in all cases: NCI tumour cell line growth inhibition, 48 h
[1] = test system: K-562 leukemia
[2] = test system: HL-60(TB) leukemia
[3] = test system: KM12 colon
[4] = test system: OVCAR-3 ovarian
[5] = test system: SNB-75 CNS
[6] = test system: SW-620 colon
[7] = test system: NCI-H460 lung
[8] = test system: EKVX NSCLC
[9] = test system: HOP-92 NSCLC
[10] = test system: TK-10 renal
[11] = test system: NCI-H522 lung
[12] = test system: NCI/ADR-RES ovarian
[13] = test system: CAKI-1 renal
[14] = test system: COLO 205 colon
[15] = test system: SK-MEL-28 melanoma
[16] = test system: HCC-2998 colon
[17] = test system: SF-268 CNS
[18] = test system: OVCAR-4 ovarian
[19] = test system: A498 renal
[20] = test system: MDA-MB-231 breast
[21] = test system: SK-MEL-2 melanoma
[22] = test system: U251 CNS
[23] = test system: MDA-MB-435
[24] = test system: SN12C renal
[25] = test system: UACC-257 melanoma
[26] = test system: CCRF-CEM leukemia
[27] = test system: MOLT-4 leukemia
[28] = test system: SNB-19 CNS
[29] = test system: MCF7 breast
[30] = test system: SR leukemia
[31] = test system: HT29 colon
[32] = test system: 786-0 renal
[33] = test system: A549 NSCLC
[34] = test system: PC-3 prostate
[35] = test system: HCT-116 colon
[36] = test system: SK-MEL-5 melanoma
[37] = test system: HCT-15 colon
[38] = test system: HOP-62 NSCLC
[39] = test system: SF-539 CNS
[40] = test system: ACHN renal
[41] = test system: OVCAR-5 ovarian
[42] = test system: UACC-62 melanoma
[43] = test system: NCI-H23 lung
[44] = test system: IGROV1 ovarian
[45] = test system: DU-145 prostate
[46] = test system: SF-295 CNS
[47] = test system: BT-549 breast
[48] = test system: M14 melanoma
[49] = test system: OVCAR-8 ovarian
[50] = test system: HS 578T breast
[51] = test system: LOX IMVI melanoma
[52] = test system: NCI-H226 lung
[53] = test system: RXF 393 renal
[54] = test system: T-47D breast
[55] = test system: MALME-3M melanoma
[56] = test system: UO-31 renal
[57] = test system: SK-OV-3 ovarian
[58] = test system: RPMI-8226 leukemia

For `O=Cc1cn(Cc2ccccc2)c2ccccc12`, the GI50 [1] was 18.7 µM, the TGI [1] was > 100 µM and the GI50 [2] was 16.9 µM. For the same molecule, the TGI [2] was > 80.5 µM, the GI50 [3] was 53.3 µM and the TGI [3] was > 100 µM. For the same molecule, the GI50 [4] was 21 µM, the TGI [4] was > 67.5 µM and the GI50 [5] was 27.1 µM. The TGI [5] was > 100 µM, the GI50 [6] was 45.6 µM and the TGI [6] was > 100 µM. The GI50 [7] was 0.279 µM, the TGI [7] was > 100 µM and the GI50 [8] was 22.8 µM. The TGI [8] was > 81 µM, the GI50 [9] was 20.6 µM and the TGI [9] was > 100 µM. The GI50 [10] was 0.946 µM, the TGI [10] was 9 µM and the GI50 [11] was > 100 µM. The TGI [11] was > 100 µM, the GI50 [12] was 35.7 µM and the TGI [12] was > 100 µM. The GI50 [13] was < 0.0426 µM, the TGI [13] was 0.547 µM and the GI50 [14] was 0.438 µM. The TGI [14] was > 32.4 µM, the GI50 [15] was > 57.8 µM and the TGI [15] was > 100 µM. For the same molecule, the GI50 [16] was 21.9 µM, the TGI [16] was > 100 µM and the GI50 [17] was 52.1 µM. The TGI [17] was > 100 µM, the GI50 [18] was 5.83 µM and the TGI [18] was > 100 µM. It also gave a GI50 [19] of 0.163 µM, a TGI [19] of 0.389 µM and a GI50 [20] of 38.7 µM. For the same molecule, the TGI [20] was > 100 µM, the GI50 [21] was 8.62 µM and the TGI [21] was 60.6 µM. The GI50 [22] was 31.5 µM, the TGI [22] was > 100 µM and the GI50 [23] was 46.2 µM. The TGI [23] was > 100 µM, the GI50 [24] was 49.2 µM and the TGI [24] was > 100 µM. It also gave a GI50 [25] of 3.44 µM, a TGI [25] of 19.5 µM and a GI50 [26] of 41.8 µM. For the same molecule, the TGI [26] was > 100 µM, the GI50 [27] was 21.1 µM and the TGI [27] was > 100 µM. The GI50 [28] was 75.4 µM, the TGI [28] was > 100 µM and the GI50 [29] was 30.7 µM. For the same molecule, the TGI [29] was > 100 µM, the GI50 [30] was > 35.4 µM and the TGI [30] was > 82 µM. The GI50 [31] was 61.5 µM, the TGI [31] was > 100 µM and the GI50 [32] was 33.1 µM. For the same molecule, the TGI [32] was 97.8 µM, the GI50 [33] was 35 µM and the TGI [33] was > 100 µM. For the same molecule, the GI50 [34] was 35.7 µM, the TGI [34] was > 100 µM and the GI50 [35] was 13.7 µM. For the same molecule, the TGI [35] was > 100 µM, the GI50 [36] was 18.7 µM and the TGI [36] was > 70 µM. For the same molecule, the GI50 [37] was 52.4 µM, the TGI [37] was > 100 µM and the GI50 [38] was 21.8 µM. For the same molecule, the TGI [38] was > 100 µM, the GI50 [39] was 43.7 µM and the TGI [39] was > 100 µM. For the same molecule, the GI50 [40] was 33.6 µM, the TGI [40] was > 100 µM and the GI50 [41] was 0.238 µM. For the same molecule, the GI50 [42] was 2.31 µM, the TGI [42] was 19.4 µM and the GI50 [43] was 37.9 µM. The TGI [43] was > 100 µM, the GI50 [44] was 0.5 µM and the TGI [44] was > 38.1 µM. For the same molecule, the GI50 [45] was > 68.2 µM, the TGI [45] was > 100 µM and the GI50 [46] was 5.15 µM. The TGI [46] was > 63.4 µM, the GI50 [47] was 29.2 µM and the TGI [47] was > 96.8 µM. The GI50 [48] was 43.4 µM, the TGI [48] was > 100 µM and the GI50 [49] was 43.5 µM. For the same molecule, the TGI [49] was > 100 µM, the GI50 [50] was 30.5 µM and the TGI [50] was > 100 µM. The GI50 [51] was 24.4 µM, the TGI [51] was > 100 µM and the GI50 [52] was 0.916 µM. The TGI [52] was 3.72 µM, the GI50 [53] was > 47.7 µM and the TGI [53] was 97.7 µM. The GI50 [54] was 3.12 µM, the TGI [54] was > 100 µM and the GI50 [55] was > 56 µM. For the same molecule, the TGI [55] was > 100 µM, the GI50 [56] was 18.2 µM and the TGI [56] was > 100 µM. The GI50 [57] was 4.04 µM, the TGI [57] was > 100 µM and the GI50 [58] was 6.39 µM. It also gave a TGI [58] of 47.7 µM.
